US20060106098A1, “Andrographolide and its derivatives as TNF-alpha antagonists” (Advanced Gene Technology, Corp., priority 2004, published 2006)

Columns and labels:
[1] = system: collagen-induced arthritis; experiment: Anti-inflammatory effect on rats with collagen-induced arthritis model; format: in vivo, SD rats; settings: for histopathological slice of joint: rat with CIA
[2] = target: T1, TNFα (Homo sapiens, UniProt P01375); experiment: In vitro L929 cell proliferation/cytotoxicity assay, TNFα activity inhibition; format: cell-based; settings: L929 cell line, TNFα 0.1 ng/ml, Act D 2 μg/ml; read-out: IC50 as TNFα antagonist
T1 construct: purchased
Procedure: (§1) In vitro L929 cell proliferation/cytotoxicity assay was performed on microtiter plates. L929 cells were cultured in Eagle's Minimal Essential Medium (EMEM) containing 10% bovine serum, 1% P/S and 1% non-essential amino acid. Confluent L929 cells were washed with 2 ml PBS solution and then trypsinized, followed by resuspending in complete medium. Two hundred μl cell suspension was aspirated for counting the cell density and the other suspension was centrifuged at 1500 rpm for 5 min. The supernatant was removed and the complete medium was added to dilute cells to a final concentration of 1.5×10^5 cells/ml. One hundred μl of cell suspension was added to each well in 96-well flat-bottomed microtiter plates and incubated for 24 hrs in 5% CO2 atmosphere at 37° C.
The chemical was resuspended in 1×PBS and sterilized with 0.22 μm filters. […]
(§2) The same samples as those for TNFα activity assay were added to the 96-well plate with the medium containing Act D to give the final concentration of Act D 2 μg/ml. […] 50 μl XTT (2,3-bis(2-methoxy-4-nitro-5-sulfophenyl)-5-[((phenylamino)carbonyl]-2H-tetra -zolium hydroxide) mixture was added to each well, and incubated for 4 hrs. Read with ELISA reader at O.D. 490/630 nm. Calculation of the TNFα Activity Inhabitation and Cytotoxicity [formula] [formula] 8. The Effect of the Methanolic Extract of A. Paniculata on L929 Cell Proliferation/Cytotoxicity Assay

[3] = system: L929 cells; experiment: Cytotoxicity on L929 cells (XTT, with Act D, without TNFα); format: cell-based; settings: at the IC50 concentration (60 μM)
Procedure: as §1, §2

[4] = CIA rats, 3rd day after treatment stopped (T4)
[5] = CIA rats, 7th day after treatment stopped (T5)

T1 sequence (P01375 77-233 limits assumed): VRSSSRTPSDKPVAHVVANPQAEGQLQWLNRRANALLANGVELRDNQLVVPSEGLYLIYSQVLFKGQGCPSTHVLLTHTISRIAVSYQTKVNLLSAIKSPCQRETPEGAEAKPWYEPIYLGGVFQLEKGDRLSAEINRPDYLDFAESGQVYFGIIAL

Structure (SMILES)	decreased percentage of edema [1, 4] [%]	decreased percentage of edema [1, 5] [%]	IC50 [2] [µM]	cytotoxicity [3]	decreased percentage of edema volume of hind paws ([1]; CIA rats, during the 7-day treatment (T3, 6th day of treatment)) [%]	histopathological slice of joint ([1]; treated IP)	histopathological slice of joint ([1]; treated by external application)	histopathological slice of joint ([1]; treated by oral)
C[C@@H]1C[C@H]2[C@@H]3CCC4=CC(=O)C=C[C@]4(C)[C@@]3(F)[C@@H](O)C[C@]2(C)[C@@]1(O)C(=O)CO [dexamethasone, Dexamethasone, reference compound]	28.21	29.97	–	–	–	–	–	–
C=C1CC[C@@H]2[C@](C)(CO)[C@H](O)CC[C@@]2(C)[C@@H]1C/C=C1/C(=O)OC[C@H]1O [andrographolide, Andrographolide]	61.43	50.24	60	No cytotocixity was found	48.1	Proliferation of synovial lining cell and infiltration of erythrocytes and some lymphocytes were observed	Proliferation of synovial lining cell and loosely connective tissues appeared	Proliferation of synovial lining cell and infiltration of lymphocytes were found
